Measurements from the supplement of paper PMC10307832.

How the values were obtained:
Assay in all cases: relative viability (nuclei count vs DMSO), 5 days (fraction); higher = more cells survive
NCI-H838 = test system: NCI-H838
Procedure, shortened: (§1)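 Five library-drug doses in √10 steps were combined with a fixed anchor-drug dose, or a single drug was given alone, by pin tool to lung cancer cell lines in 1536-well plates the day after seeding. Nuclei were stained and counted after 5 days. Relative viability is the nuclei count in treated wells over that in vehicle wells, taken as the median of duplicate plates.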

SK-MES-1 = test system: SK-MES-1
Procedure, shortened: as §1

NCI-H1792 = test system: NCI-H1792
Procedure, shortened: as §1

UMC-11 = test system: UMC-11
Procedure, shortened: as §1

NCI-H358 = test system: NCI-H358
Procedure, shortened: as §1

NCI-H2228 = test system: NCI-H2228
Procedure, shortened: as §1

NCI-H1915 = test system: NCI-H1915
Procedure, shortened: as §1

LCLC-97TM1 = test system: LCLC-97TM1
Procedure, shortened: as §1

NCI-H1355 = test system: NCI-H1355
Procedure, shortened: as §1

NCI-H322M = test system: NCI-H322M
Procedure, shortened: as §1

PC-3 [JPC-3] = test system: PC-3 [JPC-3]
Procedure, shortened: as §1

NCI-H1395 = test system: NCI-H1395
Procedure, shortened: as §1

LK-2 = test system: LK-2
Procedure, shortened: as §1

ABC-1 = test system: ABC-1
Procedure, shortened: as §1

NCI-H661 = test system: NCI-H661
Procedure, shortened: as §1

H3255 = test system: H3255
Procedure, shortened: as §1

NCI-H1651 = test system: NCI-H1651
Procedure, shortened: as §1

NCI-H2087 = test system: NCI-H2087
Procedure, shortened: as §1

NCI-H1563 = test system: NCI-H1563
Procedure, shortened: as §1

A-427 = test system: A-427
Procedure, shortened: as §1

NCI-H2085 = test system: NCI-H2085
Procedure, shortened: as §1

CAL-12T = test system: CAL-12T
Procedure, shortened: as §1

LC-2-ad = test system: LC-2-ad
Procedure, shortened: as §1

RERF-LC-KJ = test system: RERF-LC-KJ
Procedure, shortened: as §1

NCI-H1666 = test system: NCI-H1666
Procedure, shortened: as §1

With `CCCCCCCCCCCC1=C(O)C(=O)C=C(O)C1=O` [Embelin] + N=C(N)NC(=N)NCCc1ccccc1 [Phenformin] (partner 250 µM) as the molecule, how does the relative viability (NCI-H838; first compound 0.08 µM) read?
Its relative viability is 0.641.

And the relative viability (NCI-H838; first compound 0.8 µM)?
The relative viability was 0.879.

What about the relative viability (NCI-H838; first compound 2.53 µM) of the same molecule?
Its relative viability is 0.543.

What about the relative viability (NCI-H838; first compound 8 µM) of the same molecule?
The relative viability was 0.516.

And the relative viability (SK-MES-1; first compound 0.08 µM)?
Its relative viability is 0.67.

What about the relative viability (SK-MES-1; first compound 0.8 µM) of the same molecule?
Its relative viability is 0.694.

And the relative viability (SK-MES-1; first compound 2.53 µM)?
Its relative viability is 0.75.

And the relative viability (SK-MES-1; first compound 8 µM)?
Its relative viability is 0.585.

And the relative viability (NCI-H1792; first compound 0.8 µM)?
Its relative viability is 0.424.

What about the relative viability (NCI-H1792; first compound 2.53 µM) of the same molecule?
The relative viability was 0.271.

And the relative viability (NCI-H1792; first compound 8 µM)?
Its relative viability is 0.218.

What about the relative viability (UMC-11; first compound 0.08 µM) of the same molecule?
The relative viability was 0.33.

And the relative viability (UMC-11; first compound 0.8 µM)?
The relative viability was 0.339.

What about the relative viability (UMC-11; first compound 2.53 µM) of the same molecule?
The relative viability was 0.323.

And the relative viability (UMC-11; first compound 8 µM)?
The relative viability was 0.314.

What about the relative viability (NCI-H358; first compound 0.08 µM) of the same molecule?
Its relative viability is 0.322.

And the relative viability (NCI-H358; first compound 0.8 µM)?
The relative viability was 0.398.

What about the relative viability (NCI-H358; first compound 2.53 µM) of the same molecule?
Its relative viability is 0.468.

And the relative viability (NCI-H358; first compound 8 µM)?
Its relative viability is 0.36.

And the relative viability (NCI-H2228; first compound 0.08 µM)?
The relative viability was 0.332.

What about the relative viability (NCI-H2228; first compound 0.8 µM) of the same molecule?
Its relative viability is 0.314.

And the relative viability (NCI-H2228; first compound 2.53 µM)?
Its relative viability is 0.403.

What about the relative viability (NCI-H2228; first compound 8 µM) of the same molecule?
The relative viability was 0.309.

What about the relative viability (NCI-H1915; first compound 0.08 µM) of the same molecule?
Its relative viability is 0.382.

And the relative viability (NCI-H1915; first compound 0.8 µM)?
The relative viability was 0.382.

What about the relative viability (NCI-H1915; first compound 2.53 µM) of the same molecule?
The relative viability was 0.364.

And the relative viability (NCI-H1915; first compound 8 µM)?
Its relative viability is 0.411.

And the relative viability (LCLC-97TM1; first compound 0.08 µM)?
The relative viability was 0.452.

What about the relative viability (LCLC-97TM1; first compound 0.8 µM) of the same molecule?
Its relative viability is 0.432.

And the relative viability (LCLC-97TM1; first compound 2.53 µM)?
The relative viability was 0.465.

What about the relative viability (LCLC-97TM1; first compound 8 µM) of the same molecule?
Its relative viability is 0.469.

What about the relative viability (NCI-H1355; first compound 0.08 µM) of the same molecule?
The relative viability was 0.482.

And the relative viability (NCI-H1355; first compound 0.8 µM)?
Its relative viability is 0.535.

What about the relative viability (NCI-H1355; first compound 2.53 µM) of the same molecule?
Its relative viability is 0.442.

What about the relative viability (NCI-H1355; first compound 8 µM) of the same molecule?
Its relative viability is 0.392.

And the relative viability (NCI-H322M; first compound 0.08 µM)?
Its relative viability is 0.757.

And the relative viability (NCI-H322M; first compound 0.8 µM)?
The relative viability was 0.8.

What about the relative viability (NCI-H322M; first compound 2.53 µM) of the same molecule?
The relative viability was 0.913.

And the relative viability (NCI-H322M; first compound 8 µM)?
Its relative viability is 0.677.

And the relative viability (PC-3 [JPC-3]; first compound 0.08 µM)?
Its relative viability is 0.475.

And the relative viability (PC-3 [JPC-3]; first compound 0.8 µM)?
Its relative viability is 0.476.

What about the relative viability (PC-3 [JPC-3]; first compound 2.53 µM) of the same molecule?
Its relative viability is 0.477.

What about the relative viability (PC-3 [JPC-3]; first compound 8 µM) of the same molecule?
The relative viability was 0.477.

What about the relative viability (NCI-H1395; first compound 0.08 µM) of the same molecule?
The relative viability was 0.46.

And the relative viability (NCI-H1395; first compound 0.8 µM)?
The relative viability was 0.495.

And the relative viability (NCI-H1395; first compound 2.53 µM)?
Its relative viability is 0.474.

What about the relative viability (NCI-H1395; first compound 8 µM) of the same molecule?
The relative viability was 0.395.

What about the relative viability (LK-2; first compound 0.08 µM) of the same molecule?
Its relative viability is 0.626.

And the relative viability (LK-2; first compound 0.8 µM)?
The relative viability was 0.278.

And the relative viability (LK-2; first compound 2.53 µM)?
The relative viability was 0.735.

What about the relative viability (LK-2; first compound 8 µM) of the same molecule?
The relative viability was 0.26.

What about the relative viability (ABC-1; first compound 0.08 µM) of the same molecule?
Its relative viability is 0.251.

And the relative viability (ABC-1; first compound 0.8 µM)?
The relative viability was 0.237.

What about the relative viability (ABC-1; first compound 2.53 µM) of the same molecule?
Its relative viability is 0.256.

And the relative viability (ABC-1; first compound 8 µM)?
Its relative viability is 0.194.

What about the relative viability (NCI-H661; first compound 0.08 µM) of the same molecule?
The relative viability was 0.287.

And the relative viability (NCI-H661; first compound 0.8 µM)?
Its relative viability is 0.312.

And the relative viability (NCI-H661; first compound 2.53 µM)?
Its relative viability is 0.276.

What about the relative viability (NCI-H661; first compound 8 µM) of the same molecule?
Its relative viability is 0.261.

What about the relative viability (H3255; first compound 0.08 µM) of the same molecule?
The relative viability was 0.374.

What about the relative viability (H3255; first compound 0.8 µM) of the same molecule?
Its relative viability is 0.326.

What about the relative viability (H3255; first compound 2.53 µM) of the same molecule?
The relative viability was 0.324.

What about the relative viability (H3255; first compound 8 µM) of the same molecule?
Its relative viability is 0.362.

And the relative viability (NCI-H1651; first compound 0.08 µM)?
The relative viability was 0.346.

What about the relative viability (NCI-H1651; first compound 0.8 µM) of the same molecule?
Its relative viability is 0.412.

And the relative viability (NCI-H1651; first compound 2.53 µM)?
The relative viability was 0.361.

And the relative viability (NCI-H1651; first compound 8 µM)?
The relative viability was 0.321.

And the relative viability (NCI-H2087; first compound 0.08 µM)?
Its relative viability is 0.486.

What about the relative viability (NCI-H2087; first compound 0.8 µM) of the same molecule?
The relative viability was 0.459.

And the relative viability (NCI-H2087; first compound 2.53 µM)?
The relative viability was 0.426.

And the relative viability (NCI-H2087; first compound 8 µM)?
The relative viability was 0.479.

What about the relative viability (NCI-H1563; first compound 0.08 µM) of the same molecule?
The relative viability was 0.711.

What about the relative viability (NCI-H1563; first compound 0.8 µM) of the same molecule?
Its relative viability is 0.728.

What about the relative viability (NCI-H1563; first compound 2.53 µM) of the same molecule?
Its relative viability is 0.626.

And the relative viability (NCI-H1563; first compound 8 µM)?
Its relative viability is 0.578.

What about the relative viability (A-427; first compound 0.08 µM) of the same molecule?
The relative viability was 0.359.

What about the relative viability (A-427; first compound 0.8 µM) of the same molecule?
The relative viability was 0.411.

What about the relative viability (A-427; first compound 2.53 µM) of the same molecule?
The relative viability was 0.328.

What about the relative viability (A-427; first compound 8 µM) of the same molecule?
The relative viability was 0.363.

And the relative viability (NCI-H2085; first compound 0.08 µM)?
The relative viability was 0.708.

What about the relative viability (NCI-H2085; first compound 0.8 µM) of the same molecule?
Its relative viability is 0.884.

And the relative viability (NCI-H2085; first compound 2.53 µM)?
Its relative viability is 0.73.

And the relative viability (NCI-H2085; first compound 8 µM)?
Its relative viability is 0.664.

And the relative viability (CAL-12T; first compound 0.08 µM)?
Its relative viability is 0.578.

What about the relative viability (CAL-12T; first compound 0.8 µM) of the same molecule?
Its relative viability is 0.687.

And the relative viability (CAL-12T; first compound 2.53 µM)?
Its relative viability is 0.554.

What about the relative viability (CAL-12T; first compound 8 µM) of the same molecule?
The relative viability was 0.543.

And the relative viability (LC-2-ad; first compound 0.08 µM)?
Its relative viability is 0.608.

What about the relative viability (LC-2-ad; first compound 0.8 µM) of the same molecule?
Its relative viability is 0.772.

What about the relative viability (LC-2-ad; first compound 2.53 µM) of the same molecule?
Its relative viability is 0.617.

And the relative viability (LC-2-ad; first compound 8 µM)?
Its relative viability is 0.367.

And the relative viability (RERF-LC-KJ; first compound 0.08 µM)?
The relative viability was 0.431.

What about the relative viability (RERF-LC-KJ; first compound 0.8 µM) of the same molecule?
Its relative viability is 0.461.

What about the relative viability (RERF-LC-KJ; first compound 2.53 µM) of the same molecule?
Its relative viability is 0.418.

What about the relative viability (RERF-LC-KJ; first compound 8 µM) of the same molecule?
The relative viability was 0.356.

What about the relative viability (NCI-H1666; first compound 0.08 µM) of the same molecule?
The relative viability was 0.57.

And the relative viability (NCI-H1666; first compound 0.8 µM)?
The relative viability was 0.631.

And the relative viability (NCI-H1666; first compound 2.53 µM)?
The relative viability was 0.507.

And the relative viability (NCI-H1666; first compound 8 µM)?
Its relative viability is 0.575.
